biological target: T1, human cannabinoid CB1 receptor (Homo sapiens, UniProt P21554); assay: In-vitro determination of efficacy and potency at the human CB1 receptor expressed in CHO cells (AP1-luciferase reporter, antagonism of CP-55,940); assay type: cell-based
T1 construct: expressed in transfected cells; co-transfected with AP1-luciferase reporter
Procedure: In-Vitro Determination of Efficacy and Potency at the Human CB1 Receptor Expressed in CHO Cells
Chinese hamster ovary (CHO) cells, which stably express the human cannabinoid CB1 receptor were co-transfected with a luciferase reporter gene which is under the regulatory control of an AP1-response element (AP1 luc). The cells were suspended in commercially available DMEM/F12 nut mix without phenol red, containing penicillin/streptomycin (50 U/50 μg/ml) and fungizone (1 μg/ml) before being seeded into white walled, white bottomed 96 well plates at a density of 3×10^4 cells per well (100 μl final volume) and incubated overnight (approximately 18 hrs at 37° C., 5% CO2 in air) prior to assay.
10 μl of each dilution was added to the relevant wells in the cell plate to give a final concentration range of 10 μM to 0.1 nM.
Plates were incubated for 5 hours at 37° C. before addition of 100 μl LucLite reagent to each well (reconstituted as per manufacturer's instructions). Plates were sealed with Top Seal and counted on the Packard TopCount (single photon counting, 0.01 minute count time, no count delay).
Following stimulation of the CB1 receptor, luciferase expression is enhanced and this can be measured as an increase in enzyme activity. This reporter system is therefore used as a functional test to evaluate the potency of antagonist compounds at the CB1 receptor. Data was analysed using curve fitting and a minimum sum of squares method to produce pEC50 values.

T1 sequence (P21554 whole entry): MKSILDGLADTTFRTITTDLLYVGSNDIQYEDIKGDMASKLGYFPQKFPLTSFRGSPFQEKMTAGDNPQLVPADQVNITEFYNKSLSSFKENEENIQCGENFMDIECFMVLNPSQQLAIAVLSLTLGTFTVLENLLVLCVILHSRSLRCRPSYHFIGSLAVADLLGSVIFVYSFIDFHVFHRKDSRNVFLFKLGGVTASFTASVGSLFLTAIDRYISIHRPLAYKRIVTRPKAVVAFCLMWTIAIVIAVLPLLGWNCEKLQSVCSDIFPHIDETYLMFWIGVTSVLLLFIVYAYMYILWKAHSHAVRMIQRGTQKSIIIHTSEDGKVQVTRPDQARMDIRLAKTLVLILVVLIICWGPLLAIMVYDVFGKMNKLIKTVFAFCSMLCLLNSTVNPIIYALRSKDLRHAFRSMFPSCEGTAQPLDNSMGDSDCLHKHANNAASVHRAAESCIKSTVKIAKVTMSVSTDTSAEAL

Row | SMILES | IC50 [nM]
1 | N#Cc1ccc2c(c1)cc(C(=O)NC[C@H]1CCCC[C@@H]1O)n2Cc1cccc(OC(F)(F)F)c1 (relative stereo) [Example 34, trans-5-Cyano-1-(3-trifluoromethoxybenzyl)-1H-indole-2-carboxylic acid (2-hydroxy-cyclohexylmethyl)amide] | < 1
2 | CN1CCN(c2cccc(Cn3c(C(=O)NC[C@H]4CCCC[C@@H]4O)cc4cc(C#N)ccc43)c2)CC1 (relative stereo) [Example 47, trans-5-Cyano-1-[3-(4-methyl-piperazin-1-yl)-benzyl]-1H-indole-2-carboxylic acid (2-hydroxy-cyclohexylmethyl)amide] | 10 to 100
3 | N#Cc1ccc2c(c1)cc(C(=O)N[C@@H]1CCC[C@H]1O)n2Cc1cccc(OC(F)(F)F)c1 (relative stereo) [Example 54, trans-5-Cyano-1-(3-trifluoromethoxybenzyl)-1H-indole-2-carboxylic acid (2-hydroxy-cyclopentyl)amide] | 1 to 10
4 | CC(C)OCCCNC(=O)c1cc2cc(Cl)ccc2n1Cc1cccc(OC(F)(F)F)c1 [Example 15, 5-Chloro-1-(3-trifluoromethoxybenzyl)-1H-indole-2-carboxylic acid (3-isopropoxypropyl)amide] | 10 to 100
5 | COc1ccc(OC(F)(F)F)cc1Cn1c(C(=O)NCC(C)(C)CO)cc2cc(C#N)ccc21 [Example 22, 5-Cyano-1-(2-methoxy-5-trifluoromethoxybenzyl)-1H-indole-2-carboxylic acid (3-hydroxy-2,2-dimethylpropyl)amide] | 1 to 10
6 | N#Cc1ccc2c(c1)cc(C(=O)NCC1(O)CCCCC1)n2Cc1cccc(OC(F)(F)F)c1 [Example 60, 5-Cyano-1-(3-trifluoromethoxybenzyl)-1H-indole-2-carboxylic acid (1-hydroxy-cyclohexylmethyl)amide] | 1 to 10
7 | Cc1ccc(C(F)(F)F)cc1Cn1c(C(=O)NCCC(C)(C)O)cc2cc(C#N)ccc21 [Example 64, 5-Cyano-1-(2-methyl-5-trifluoromethylbenzyl)-1H-indole-2-carboxylic acid (3-hydroxy-3-methylbutyl)amide] | 1 to 10
8 | N#Cc1ccc2c(c1)cc(C(=O)NCC1(O)CCCC1)n2Cc1cccc(OC(F)(F)F)c1 [Example 65, 5-Cyano-1-(3-trifluoromethoxybenzyl)-1H-indole-2-carboxylic acid (1-hydroxy-cyclopentylmethyl)amide] | 1 to 10
9 | N#Cc1ccc2c(c1)cc(C(=O)NCC1(CO)CCCC1)n2Cc1cccc(OC(F)(F)F)c1 [Example 68, 5-Cyano-1-(3-trifluoromethoxybenzyl)-1H-indole-2-carboxylic acid (1-hydroxymethyicyclopentylmethyl)amide] | < 1
10 | CC(O)(CCNC(=O)c1cc2cc(C#N)ccc2n1Cc1cccc(OC(F)(F)F)c1)C(F)(F)F (stereo not shown) [Example 71, 5-Cyano-1-(3-trifluoromethoxybenzyl)-1H-indole-2-carboxylic acid (4,4,4-trifluoro-3-hydroxy-3-methylbutyl)amide] | 1 to 10
